# US9491960B2, “Sweetener” (Tate & Lyle Ingredients Americas LLC, priority 2013, dated 2016)
# Read-outs that look alike come from different tables or passages of the source. Marks after values point to notes of the source that are not given here.
# Tests used:
# [1] = Round table sensory evaluation by test panelists: sucrose equivalent value (SEV) against sucrose reference samples; assay type: in vivo; details: for Sweetness (mean SEV, Duncan grouping) / Sweetness (mean SEV, two-way ANOVA, level of significance Duncan): 10 SEV solutions in neutral pH water; for Sweetness (mean SEV, Duncan grouping): level of significance for the grouping (Duncan): 5%; for Sweetness (mean SEV, two-way ANOVA, level of significance Duncan): superscripts = Duncan level of significance; for Mean 1 (mean sucrose equivalent value, SEV) / Median 1 (median sucrose equivalent value, SEV): equal sweet 10 SEV concentrations in neutral pH water, references 4%-14% sucrose, room temperature
# Experimental: Round table evaluations were performed with test panelists. Equal sweet 10 SEV concentrations in neutral pH water were made for allulose, fructose and sucralose, as well as a composition comprising allulose, fructose and sucralose. The components of the test compositions are described in the below tables. The mixed compositions were calculated using the Beidler mixture equation for the sweeteners. The Beidler mixture equation for sweeteners is as follows: […]
# The concentration of each component in the mixture in ppm is divided by SEV (c/R) and is plotted against concentration, c. The slope of the linear regression is the maximum SEV (Rmax). The y-intercept of the linear regression multiplied by Rmax is the half-maximal sweetness concentration, 1/K. Rmax and 1/K are the two parameters used in the Beidler equation.
# The equal-molar mixture was tested against reference samples for the panelists to determine SEV values. […] The test samples were served in 2 ounce (approximately 60 ml) soufflé cups coded with 3-digit codes at room temperature. A two minute wait period between samples was enforced. Water and unsalted crackers was available for the panelists to clear their palates before and during testing. EyeQuestion, software distributed by Logic8 BV of Elst, The Netherlands, was used for ballot development and recording of results. Results were collected in EyeQuestion for calculating approximate SEV level of each test sample. The test products analyzed in this experiment are described below in Table 1.
# [2] = cited from earlier work
molecule,measurement,setting,value
sucralose,"Sweetness (mean SEV, Duncan grouping)",[1],9.29^c
same,"Sweetness (mean SEV, two-way ANOVA, level of significance Duncan)",[1],9.29
same,"Mean 1 (mean sucrose equivalent value, SEV)",[1],9.286
same,"Median 1 (median sucrose equivalent value, SEV)",[1],10
same,Sweetness relative to sucrose,[2]; times as sweet as sucrose,approximately 600 times
"O=C(CO)[C@@H](O)[C@H](O)[C@H](O)CO [Fructose, fructose]","Sweetness (mean SEV, Duncan grouping)",[1],10.14^b-c
same,"Sweetness (mean SEV, two-way ANOVA, level of significance Duncan)",[1],10.14
same,"Mean 1 (mean sucrose equivalent value, SEV)",[1],10.14
same,"Median 1 (median sucrose equivalent value, SEV)",[1],10
"O=C(CO)C(O)C(O)C(O)CO (centres unmarked) [Allulose, allulose]","Sweetness (mean SEV, Duncan grouping)",[1],10.14^b-c
same,"Sweetness (mean SEV, two-way ANOVA, level of significance Duncan)",[1],10.14
same,"Mean 1 (mean sucrose equivalent value, SEV)",[1],10.14
same,"Median 1 (median sucrose equivalent value, SEV)",[1],10
same,Sweetness relative to sucrose,[2]; % of the sweetness of sucrose,around 70%
